Measurements from patent publication US20230069804A1, “METHODS AND COMPOSITIONS FOR MODULATING SPLICING” (SkyHawk Therapeutics, Inc., priority 2019, published 2023).

How the values were obtained:
SMN protein = SMN protein assay (MSD) in SMA patient fibroblasts GM03813; format: cell-based; conditions: Fibroblast, 48 h, SMA patient fibroblasts GM03813, 48 hours; read-out: SMN2 Potency - Protein: Protein FL EC50 (average)
Procedure: Compounds were tested on spinal muscular atrophy (SMA) patient fibroblasts (GM03813, Coriell) at doses ranging from 2.5 μM to 0.6 nM. 7000 cells/well were seeded in 96-well plates. Compounds were incubated for 48 hours and the cells were lysed with 100 μL of lysis buffer. 20 μL of lysate was used for SMN protein measurement by Mesoscale Discovery (MSD) assay developed by PharmOptima (Michigan). A standard curve prepared with SMN protein ranging from 1 μg/ml to 19.5 pg/ml was used in each MSD plate to calculate the absolute SMN protein amount in each sample.

SMN2 = assay: Quantitative splicing assay (SMN) in SMA patient fibroblasts GM03813; format: cell-based; conditions: Homo sapiens, Fibroblast, SMA patient fibroblasts GM03813, 24 h; for IC50: read-out: SMN2 Potency - Splicing: Splicing D7 IC50 (average); for EC50: read-out: SMN2 Potency - Splicing: Splicing FL EC50 (average)
Procedure: Spinal muscular atrophy (SMA) patient fibroblasts (GM03813, Coriell) are plated in 96-well plates at 50,000 cells/well. Immediately after plating, cells are dosed with compounds for 24 h at concentrations ranging from 2.5 μM to 0.6 nM (0.1% DMSO). Treated cells are lysed and cDNA synthesized using the Fast Advanced Cells-to-Ct kit (Thermofisher A35378) according to the manufacturer's instructions. 2 μL of each cDNA are used in qPCR reactions. The qPCR reactions are prepared in 384-well plates in 10 μL volume, using TaqMan™ Fast Advanced Master Mix (ThermoFisher; 4444965) with primers and probes shown in the table below. Reactions are run in a Quant Studio 6 qPCR instrument with default settings.
It is to be understood that the absolute stereochemistry for compounds of Table 3 is not determined.

MDR1 = assay: MDCK-MDR1 permeability assay (BBB penetration potential); format: in vitro ADME; conditions: dog; for efflux ratio at 120 min, 5 μM: MDCK-MDR1, pH 7.4, Papp (B-to-A)/Papp (A-to-B), read-out: MDCK-MDR1: Efflux; for Papp A→B at 120 min, 5 μM / Papp B→A at 120 min, 5 μM: MDCK-MDR1, pH 7.4
Procedure: (§1) Each determination is performed in duplicate. […] Analytical conditions are outlined below.
(§2) Papp=(dCr/dt)×Vr/(A×CA) (1)

[1] = test system: MDR1-MDCK cell monolayers; assay: as above; format: in vitro ADME; conditions: 5 μM, 120 minutes, pH 7.4
Procedure: as §1, §2

Structure (SMILES) | EC50 (SMN protein) | IC50 (SMN2) | EC50 (SMN2) | efflux ratio at 120 min, 5 μM (MDR1) | Papp A→B at 120 min, 5 μM (MDR1) | Papp B→A at 120 min, 5 μM (MDR1) | MDCK-MDR1: % Recov A-B [1] | MDCK-MDR1: % Recov B-A [1]
CN(c1nnc(-c2ccc(-c3cnn(C)c3)cc2O)s1)[C@@H]1C[C@H]2CCC[C@H](N2)[C@@H]1F [Compound E-1A, 2-(5-(((1S,2S,3R,5R)-2-fluoro-9-azabicyclo[3.3.1]nonan-3-yl)(methyl)amino)-1,3,4-thiadiazol-2-yl)-5-(1-methyl-1H-pyrazol-4-yl)phenol] | 16 to 50 nM | 51 to 100 nM | 101 to 500 nM | 6 | 5.28 ×10⁻⁶ cm/s | 33.1 ×10⁻⁶ cm/s | 57% | 71%
CN(c1nnc(-c2ccc(-c3cnn(C)c3)cc2O)s1)[C@H]1C[C@@H]2CCC[C@@H](N2)[C@H]1F [Compound E-1B, 2-(5-(((1R,2R,3S,5S)-2-fluoro-9-azabicyclo[3.3.1]nonan-3-yl)(methyl)amino)-1,3,4-thiadiazol-2-yl)-5-(1-methyl-1H-pyrazol-4-yl)phenol] | 0.01 to 15 nM | 0.01 to 15 nM | 16 to 50 nM | 4 | 5.53 ×10⁻⁶ cm/s | 20.4 ×10⁻⁶ cm/s | 53% | 68%
COc1cc(-c2ccc(-c3nnc(N(C4CC4)[C@@H]4C[C@H]5CC[C@H](N5)[C@@H]4F)s3)c(O)c2)cc(F)n1 [Compound E-2A, 2-(5-(cyclopropyl((1S,2S,3R,5R)-2-fluoro-8-azabicyclo[3.2.1]octan-3-yl)amino)-1,3,4-thiadiazol-2-yl)-5-(2-fluoro-6-methoxypyridin-4-yl)phenol] | 0.01 to 15 nM | 0.01 to 15 nM | 16 to 50 nM | 6 | 2.07 ×10⁻⁶ cm/s | 12 ×10⁻⁶ cm/s | 19% | 45%
COc1cc(-c2ccc(-c3nnc(N(C4CC4)[C@H]4C[C@@H]5CC[C@@H](N5)[C@H]4F)s3)c(O)c2)cc(F)n1 [Compound E-2B, 2-(5-(cyclopropyl((1R,2R,3S,5S)-2-fluoro-8-azabicyclo[3.2.1]octan-3-yl)amino)-1,3,4-thiadiazol-2-yl)-5-(2-fluoro-6-methoxypyridin-4-yl)phenol] | 0.01 to 15 nM | 16 to 50 nM | 51 to 100 nM | 5 | 1.87 ×10⁻⁶ cm/s | 9.89 ×10⁻⁶ cm/s | 16% | 44%
CN(c1nnc(-c2ccc(-c3cnn(C)c3)cc2O)s1)[C@H]1C[C@@H]2CC[C@@H](N2)[C@H]1F [Compound E-3A, 2-(5-(((1R,2R,3S,5S)-2-fluoro-8-azabicyclo[3.2.1]octan-3-yl)(methyl)amino)-1,3,4-thiadiazol-2-yl)-5-(1-methyl-1H-pyrazol-4-yl)phenol] | 16 to 50 nM | 101 to 500 nM | 101 to 500 nM | 3 | 10.5 ×10⁻⁶ cm/s | 35.2 ×10⁻⁶ cm/s | 77% | 85%
CN(c1nnc(-c2ccc(-c3cnn(C)c3)cc2O)s1)[C@@H]1C[C@H]2CC[C@H](N2)[C@@H]1F [Compound E-3B, 2-(5-(((1S,2S,3R,5R)-2-fluoro-8-azabicyclo[3.2.1]octan-3-yl)(methyl)amino)-1,3,4-thiadiazol-2-yl)-5-(1-methyl-1H-pyrazol-4-yl)phenol] | 0.01 to 15 nM | 0.01 to 15 nM | 16 to 50 nM | 5 | 11.2 ×10⁻⁶ cm/s | 51.1 ×10⁻⁶ cm/s | 80% | 89%
